According to the NIST ThermoML archive (doi:10.1016/j.tca.2017.02.015):
Numbers after ± are expanded uncertainties.

Tests used:
[1] = molar heat capacity at constant pressure; details: Liquid, Flow calorimetry
[2] = molar heat capacity at constant pressure; xn = mol fraction of the nth substance listed; details: Liquid, Flow calorimetry

CCCCCCCCCC(=O)OC [methyl decanoate]
molar heat capacity at constant pressure ([1]; 313.71 K, 100 kPa): 383.9 ± 3.9 J/K/mol
molar heat capacity at constant pressure ([1]; 313.82 K, 4070 kPa): 382.1 ± 3.9 J/K/mol
molar heat capacity at constant pressure ([1]; 313.83 K, 8030 kPa): 380.5 ± 3.8 J/K/mol
molar heat capacity at constant pressure ([1]; 313.99 K, 12010 kPa): 378.5 ± 3.8 J/K/mol
molar heat capacity at constant pressure ([1]; 314.01 K, 16140 kPa): 376.6 ± 3.8 J/K/mol
molar heat capacity at constant pressure ([1]; 324.79 K, 100 kPa): 387.6 ± 3.9 J/K/mol
molar heat capacity at constant pressure ([1]; 324.79 K, 4070 kPa): 386 ± 3.9 J/K/mol
molar heat capacity at constant pressure ([1]; 325.01 K, 8030 kPa): 384.4 ± 3.9 J/K/mol
molar heat capacity at constant pressure ([1]; 325.06 K, 12010 kPa): 382.5 ± 3.9 J/K/mol
molar heat capacity at constant pressure ([1]; 325.2 K, 16140 kPa): 379.3 ± 3.8 J/K/mol
molar heat capacity at constant pressure ([1]; 334.12 K, 100 kPa): 393.2 ± 4 J/K/mol
molar heat capacity at constant pressure ([1]; 334.33 K, 8030 kPa): 388.3 ± 3.9 J/K/mol
molar heat capacity at constant pressure ([1]; 334.53 K, 4070 kPa): 390.3 ± 3.9 J/K/mol
molar heat capacity at constant pressure ([1]; 334.6 K, 12010 kPa): 386.2 ± 3.9 J/K/mol
molar heat capacity at constant pressure ([1]; 334.84 K, 16140 kPa): 384.2 ± 3.9 J/K/mol

CCCCCCCCCC(=O)OC [methyl decanoate] + CCCCCCCCCCCC(=O)OC
molar heat capacity at constant pressure ([2]; 313.71 K, 100 kPa, x2 = 0): 383.9 ± 3.9 J/K/mol
molar heat capacity at constant pressure ([2]; 313.82 K, 4070 kPa, x2 = 0): 382.1 ± 3.9 J/K/mol
molar heat capacity at constant pressure ([2]; 313.83 K, 8030 kPa, x2 = 0): 380.5 ± 3.8 J/K/mol
molar heat capacity at constant pressure ([2]; 313.99 K, 12010 kPa, x2 = 0): 378.5 ± 3.8 J/K/mol
molar heat capacity at constant pressure ([2]; 314.01 K, 16140 kPa, x2 = 0): 376.6 ± 3.8 J/K/mol
molar heat capacity at constant pressure ([2]; 324.79 K, 100 kPa, x2 = 0): 387.6 ± 3.9 J/K/mol
molar heat capacity at constant pressure ([2]; 324.79 K, 4070 kPa, x2 = 0): 386 ± 3.9 J/K/mol
molar heat capacity at constant pressure ([2]; 325.01 K, 8030 kPa, x2 = 0): 384.4 ± 3.9 J/K/mol
molar heat capacity at constant pressure ([2]; 325.06 K, 12010 kPa, x2 = 0): 382.5 ± 3.9 J/K/mol
molar heat capacity at constant pressure ([2]; 325.2 K, 16140 kPa, x2 = 0): 379.3 ± 3.8 J/K/mol
molar heat capacity at constant pressure ([2]; 334.12 K, 100 kPa, x2 = 0): 393.2 ± 4 J/K/mol
molar heat capacity at constant pressure ([2]; 334.33 K, 8030 kPa, x2 = 0): 388.3 ± 3.9 J/K/mol
molar heat capacity at constant pressure ([2]; 334.53 K, 4070 kPa, x2 = 0): 390.3 ± 3.9 J/K/mol
molar heat capacity at constant pressure ([2]; 334.6 K, 12010 kPa, x2 = 0): 386.2 ± 3.9 J/K/mol
molar heat capacity at constant pressure ([2]; 334.84 K, 16140 kPa, x2 = 0): 384.2 ± 3.9 J/K/mol

CCCCCCCCCCCC(=O)OC [methyl dodecanoate]
molar heat capacity at constant pressure ([1]; 313.97 K, 100 kPa): 442.6 ± 4.5 J/K/mol
molar heat capacity at constant pressure ([1]; 313.99 K, 4040 kPa): 441.6 ± 4.5 J/K/mol
molar heat capacity at constant pressure ([1]; 314.06 K, 8070 kPa): 439.5 ± 4.4 J/K/mol
molar heat capacity at constant pressure ([1]; 314.09 K, 12160 kPa): 438.3 ± 4.4 J/K/mol
molar heat capacity at constant pressure ([1]; 314.14 K, 16180 kPa): 436.9 ± 4.4 J/K/mol
molar heat capacity at constant pressure ([1]; 323.84 K, 12090 kPa): 444.8 ± 4.5 J/K/mol
molar heat capacity at constant pressure ([1]; 323.88 K, 100 kPa): 449.5 ± 4.5 J/K/mol
molar heat capacity at constant pressure ([1]; 323.93 K, 4070 kPa): 447.2 ± 4.5 J/K/mol
molar heat capacity at constant pressure ([1]; 323.94 K, 16080 kPa): 443.3 ± 4.5 J/K/mol
molar heat capacity at constant pressure ([1]; 324.01 K, 8060 kPa): 445.8 ± 4.5 J/K/mol
molar heat capacity at constant pressure ([1]; 333.88 K, 100 kPa): 456.4 ± 4.6 J/K/mol
molar heat capacity at constant pressure ([1]; 333.96 K, 4050 kPa): 453.6 ± 4.6 J/K/mol
molar heat capacity at constant pressure ([1]; 334 K, 8050 kPa): 452.1 ± 4.6 J/K/mol
molar heat capacity at constant pressure ([1]; 334.05 K, 12060 kPa): 450.5 ± 4.6 J/K/mol
molar heat capacity at constant pressure ([1]; 334.11 K, 16170 kPa): 448 ± 4.5 J/K/mol

CCCCCCCCCCCC(=O)OC [methyl dodecanoate] + CCCCCCCCCC(=O)OC
molar heat capacity at constant pressure ([2]; 313.71 K, 100 kPa, x1 = 0.5001): 414.9 ± 4.2 J/K/mol
molar heat capacity at constant pressure ([2]; 313.82 K, 4060 kPa, x1 = 0.5001): 413.3 ± 4.2 J/K/mol
molar heat capacity at constant pressure ([2]; 313.83 K, 8100 kPa, x1 = 0.5001): 412.3 ± 4.2 J/K/mol
molar heat capacity at constant pressure ([2]; 313.97 K, 100 kPa, x1 = 1): 442.6 ± 4.5 J/K/mol
molar heat capacity at constant pressure ([2]; 313.99 K, 4040 kPa, x1 = 1): 441.6 ± 4.5 J/K/mol
molar heat capacity at constant pressure ([2]; 313.99 K, 12140 kPa, x1 = 0.5001): 410.1 ± 4.1 J/K/mol
molar heat capacity at constant pressure ([2]; 314.01 K, 100 kPa, x1 = 0.6999): 426.4 ± 4.3 J/K/mol
molar heat capacity at constant pressure ([2]; 314.01 K, 16150 kPa, x1 = 0.5001): 408.9 ± 4.1 J/K/mol
molar heat capacity at constant pressure ([2]; 314.06 K, 8070 kPa, x1 = 1): 439.5 ± 4.4 J/K/mol
molar heat capacity at constant pressure ([2]; 314.08 K, 4080 kPa, x1 = 0.6999): 425.1 ± 4.3 J/K/mol
molar heat capacity at constant pressure ([2]; 314.09 K, 12160 kPa, x1 = 1): 438.3 ± 4.4 J/K/mol
molar heat capacity at constant pressure ([2]; 314.14 K, 16180 kPa, x1 = 1): 436.9 ± 4.4 J/K/mol
molar heat capacity at constant pressure ([2]; 314.17 K, 12080 kPa, x1 = 0.6999): 421.2 ± 4.3 J/K/mol
molar heat capacity at constant pressure ([2]; 314.18 K, 8140 kPa, x1 = 0.6999): 422.7 ± 4.3 J/K/mol
molar heat capacity at constant pressure ([2]; 314.21 K, 16150 kPa, x1 = 0.6999): 419.4 ± 4.2 J/K/mol
molar heat capacity at constant pressure ([2]; 314.37 K, 100 kPa, x1 = 0.3001): 403.7 ± 4.1 J/K/mol
molar heat capacity at constant pressure ([2]; 314.53 K, 4090 kPa, x1 = 0.3001): 402.2 ± 4.1 J/K/mol
molar heat capacity at constant pressure ([2]; 314.71 K, 8010 kPa, x1 = 0.3001): 400.6 ± 4 J/K/mol
molar heat capacity at constant pressure ([2]; 314.95 K, 12020 kPa, x1 = 0.3001): 397.7 ± 4 J/K/mol
molar heat capacity at constant pressure ([2]; 315.06 K, 16080 kPa, x1 = 0.3001): 395.6 ± 4 J/K/mol
molar heat capacity at constant pressure ([2]; 323.53 K, 100 kPa, x1 = 0.3001): 412 ± 4.2 J/K/mol
molar heat capacity at constant pressure ([2]; 323.58 K, 4100 kPa, x1 = 0.3001): 409.5 ± 4.1 J/K/mol
molar heat capacity at constant pressure ([2]; 323.69 K, 8070 kPa, x1 = 0.3001): 406.9 ± 4.1 J/K/mol
molar heat capacity at constant pressure ([2]; 323.84 K, 12080 kPa, x1 = 0.3001): 403.9 ± 4.1 J/K/mol
molar heat capacity at constant pressure ([2]; 323.84 K, 12090 kPa, x1 = 1): 444.8 ± 4.5 J/K/mol
molar heat capacity at constant pressure ([2]; 323.88 K, 100 kPa, x1 = 1): 449.5 ± 4.5 J/K/mol
molar heat capacity at constant pressure ([2]; 323.93 K, 4070 kPa, x1 = 1): 447.2 ± 4.5 J/K/mol
molar heat capacity at constant pressure ([2]; 323.94 K, 16080 kPa, x1 = 1): 443.3 ± 4.5 J/K/mol
molar heat capacity at constant pressure ([2]; 324.01 K, 8060 kPa, x1 = 1): 445.8 ± 4.5 J/K/mol
molar heat capacity at constant pressure ([2]; 324.05 K, 100 kPa, x1 = 0.6999): 435.5 ± 4.4 J/K/mol
molar heat capacity at constant pressure ([2]; 324.08 K, 4120 kPa, x1 = 0.6999): 433.4 ± 4.4 J/K/mol
molar heat capacity at constant pressure ([2]; 324.13 K, 8050 kPa, x1 = 0.6999): 431.3 ± 4.4 J/K/mol
molar heat capacity at constant pressure ([2]; 324.19 K, 12080 kPa, x1 = 0.6999): 428.2 ± 4.3 J/K/mol
molar heat capacity at constant pressure ([2]; 324.24 K, 16120 kPa, x1 = 0.6999): 426.4 ± 4.3 J/K/mol
molar heat capacity at constant pressure ([2]; 324.39 K, 16190 kPa, x1 = 0.3001): 400.5 ± 4 J/K/mol
molar heat capacity at constant pressure ([2]; 324.79 K, 100 kPa, x1 = 0.5001): 424.4 ± 4.3 J/K/mol
molar heat capacity at constant pressure ([2]; 324.79 K, 4150 kPa, x1 = 0.5001): 421.6 ± 4.3 J/K/mol
molar heat capacity at constant pressure ([2]; 325.01 K, 8140 kPa, x1 = 0.5001): 418.7 ± 4.2 J/K/mol
molar heat capacity at constant pressure ([2]; 325.06 K, 12110 kPa, x1 = 0.5001): 416.1 ± 4.2 J/K/mol
molar heat capacity at constant pressure ([2]; 325.2 K, 16230 kPa, x1 = 0.5001): 413.7 ± 4.2 J/K/mol
molar heat capacity at constant pressure ([2]; 333.55 K, 100 kPa, x1 = 0.3001): 418.3 ± 4.2 J/K/mol
molar heat capacity at constant pressure ([2]; 333.71 K, 100 kPa, x1 = 0.6999): 442.8 ± 4.5 J/K/mol
molar heat capacity at constant pressure ([2]; 333.76 K, 4130 kPa, x1 = 0.3001): 415.8 ± 4.2 J/K/mol
molar heat capacity at constant pressure ([2]; 333.79 K, 8110 kPa, x1 = 0.3001): 413.5 ± 4.2 J/K/mol
molar heat capacity at constant pressure ([2]; 333.88 K, 100 kPa, x1 = 1): 456.4 ± 4.6 J/K/mol
molar heat capacity at constant pressure ([2]; 333.96 K, 4050 kPa, x1 = 1): 453.6 ± 4.6 J/K/mol
molar heat capacity at constant pressure ([2]; 333.97 K, 12160 kPa, x1 = 0.6999): 434.7 ± 4.4 J/K/mol
molar heat capacity at constant pressure ([2]; 333.98 K, 4150 kPa, x1 = 0.6999): 440.9 ± 4.5 J/K/mol
molar heat capacity at constant pressure ([2]; 334 K, 8050 kPa, x1 = 1): 452.1 ± 4.6 J/K/mol
molar heat capacity at constant pressure ([2]; 334.03 K, 12080 kPa, x1 = 0.3001): 411.7 ± 4.2 J/K/mol
molar heat capacity at constant pressure ([2]; 334.04 K, 8040 kPa, x1 = 0.6999): 439 ± 4.4 J/K/mol
molar heat capacity at constant pressure ([2]; 334.04 K, 16170 kPa, x1 = 0.6999): 431.9 ± 4.4 J/K/mol
molar heat capacity at constant pressure ([2]; 334.05 K, 12060 kPa, x1 = 1): 450.5 ± 4.6 J/K/mol
molar heat capacity at constant pressure ([2]; 334.11 K, 16170 kPa, x1 = 1): 448 ± 4.5 J/K/mol
molar heat capacity at constant pressure ([2]; 334.12 K, 100 kPa, x1 = 0.5001): 431.7 ± 4.4 J/K/mol
molar heat capacity at constant pressure ([2]; 334.21 K, 16110 kPa, x1 = 0.3001): 408.4 ± 4.1 J/K/mol
molar heat capacity at constant pressure ([2]; 334.33 K, 8140 kPa, x1 = 0.5001): 425.5 ± 4.3 J/K/mol
molar heat capacity at constant pressure ([2]; 334.53 K, 4120 kPa, x1 = 0.5001): 428.8 ± 4.3 J/K/mol
molar heat capacity at constant pressure ([2]; 334.6 K, 12200 kPa, x1 = 0.5001): 423.1 ± 4.3 J/K/mol
molar heat capacity at constant pressure ([2]; 334.84 K, 16030 kPa, x1 = 0.5001): 420.7 ± 4.3 J/K/mol
